≈ marks a conversion by molar mass, not a printed value.
Conditions: buffer; pH 7.4; 200.0 µM

Structure (SMILES)	solubility kinetic [µg/mL]
O=C(O)c1nn2cc(CCO)cnc2c1Cl	> 36.2
CCC(C(=O)OCCOCCN(CC)CC)c1ccccc1 (stereo not drawn)	41.1 (≈ 134 µM)
O=C(C1CCCN(S(=O)(=O)c2ccc(Cl)cc2)C1)N1CCCC1 (stereo not drawn)	48.7 (≈ 136 µM)
CCOC(=O)c1ccoc1CN1CCN(S(=O)(=O)c2ccc(C)c(C)c2)CC1	32.8 (≈ 80.7 µM)
COc1ccc(C(=O)NCCSCc2cccc(Cl)c2)cc1OC	6.3 (≈ 17.2 µM)
Cc1ccc(C2N(C)C(=O)c3ccccc3N2C)cc1 (stereo not drawn)	31.5 (≈ 118 µM)
O=C(Nc1cccc(S(=O)(=O)N2CCCCC2)c1)C1CC1	> 46.3
O=C1CC2(CCCC2)CC(=O)N1c1ccccc1	> 36.5
Cc1ccccc1-n1c(-c2ccoc2)nc2ccccc2c1=O	> 45.3
Cc1cc(NC(=O)C(C)Oc2ccc(C(C)(C)C)cc2)no1 (stereo not drawn)	4 (≈ 13.2 µM)
Cc1cc(C)c2c(CN3CCC(C)CC3)cc(=O)oc2c1	4.3 (≈ 15.1 µM)
O=C(NC1=NCCS1)c1ccc(F)c(S(=O)(=O)N2CCOCC2)c1	> 56
CCN(Cc1ccccc1)C(=O)c1ccc(Cl)cc1[N+](=O)[O-]	44.5 (≈ 140 µM)
COc1ccc(C(=O)N2CCCC(C(=O)O)C2)c2ccccc12 (stereo not drawn)	> 47
CCOc1cc(C(=O)NC2CC(C)(C)NC(C)(C)C2)cc(OCC)c1OCC	> 58.9
CC1(C)Cc2nc(-c3ccccc3)nc(SCC(O)CO)c2CO1 (stereo not drawn)	51.7 (≈ 149 µM)
O=C(NC1CCCCC1)c1ccc(N2CCOCC2)c([N+](=O)[O-])c1	> 50
O=C(c1ccc(-c2cc(Cl)ccc2Cl)o1)N1CCOCC1	11.3 (≈ 34.6 µM)
Cc1ccccc1CC(=O)NC1CCN(C)CC1	> 37
O=C(Nc1ccccc1)C1C2CCCCC21 (stereo not drawn)	1.9 (≈ 8.83 µM)
COC(=O)c1ccc(CSCC(=O)Nc2ccccc2)cc1	> 47.3
COc1ccc(/C=C/C2=CC(C)(C)NC(=S)N2)cc1	9.4 (≈ 34.3 µM)
O=C(Nc1cccc(Cl)c1N1CCOCC1)c1cccnc1	> 47.7
COc1cccc(NC(=O)CN2CCc3ccccc3C2)c1	42.7 (≈ 144 µM)

Structure (SMILES)	solubility kinetic [µg/mL]
O=C(O)C1C2CCC(C2)C1C(=O)Nc1ccc(Cl)c(Cl)c1 (stereo not drawn)	< 0.7
Cc1cccc(N(Cc2ccccc2)C(=O)c2ccccc2F)c1	11.5 (≈ 36 µM)
COc1ccc(NCC(=O)n2c(C)c(C)c3ccccc32)cc1OC	4.9 (≈ 14.5 µM)
O=C(Nc1nc2cc3c(cc2s1)OCO3)c1ccc(N2C(=O)CCC2=O)cc1	1.1 (≈ 2.78 µM)
O=S(=O)(Cc1ccccc1)Nc1ccc(F)cc1	> 39.8
Cc1cc(C)c(S(=O)(=O)c2ccccc2)c(=O)[nH]1	> 39.5
O=C(c1cc2cc(F)ccc2[nH]1)N1CCN(c2ccc(F)cc2)CC1	0.3 (≈ 0.879 µM)
O=C(Nc1cccc(Cl)c1)C1CCCN(c2cnccn2)C1 (stereo not drawn)	> 47.5
CSCCNCc1c(C(=O)N2CCOCC2)nc2c(C)cccn12	46.1 (≈ 132 µM)
COc1ccc(CCNC(=O)CCc2ccc(OC)cc2)cc1	11.4 (≈ 36.4 µM)
COc1ccc(CN(C)C(=O)c2ccncc2)c(OC)c1	> 42.9
COc1cc(S(=O)(=O)n2cnc3ccccc32)ccc1Br	> 55.1
Nc1ncc([N+](=O)[O-])c(Oc2ccccc2F)n1	> 37.5
O=C(CN1C(=O)NC2(CCCCCC2)C1=O)N1CCCCC1	> 46.1
Cc1cc(C)c(C#N)c(SC(C(=O)NC(C)(C)C)c2ccccc2)n1 (stereo not drawn)	< 0.3
Cc1cc([N+](=O)[O-])nn1CC(=O)NC(C)c1ccccc1 (stereo not drawn)	> 43.2
O=C(O)c1ccc2[nH]c3c(c2c1)CCCC3	> 32.3
COc1ccc(C(C)NC(=O)c2ccncc2)cc1OC (stereo not drawn)	> 42.9
COc1ccccc1NC(=O)COc1ccc2c(c1)OCO2	2.5 (≈ 8.3 µM)
COc1ccc(N(CC(=O)NCCSc2ccccc2)S(=O)(=O)c2ccccc2)c(OC)c1	3.6 (≈ 7.4 µM)
CC(Oc1ccc(F)cc1)C(O)CCN(C)C (stereo not drawn)	25.8 (≈ 107 µM)
N/C(=N\C(=S)Nc1ccccc1)c1ccccc1	> 38.3
CC(=O)Nc1ccc2c(c1)nc(CCNC(=O)c1ccco1)n2C	48.2 (≈ 148 µM)
N#C/C(=C\c1cn(CC(=O)O)c2ccccc12)C(=O)NCc1ccccc1	48.9 (≈ 136 µM)

Structure (SMILES)	solubility kinetic [µg/mL]
O=C(/C=C/c1ccco1)Oc1cccc2cccnc12	27.1 (≈ 102 µM)
CC(NC(=O)COC(=O)c1cc(=O)c2ccccc2o1)c1ccccc1 (stereo not drawn)	> 52.7
Cc1ccc(NC(=O)c2ccc3c(c2)OCCO3)cc1C	25.8 (≈ 91.1 µM)
COc1ccc(NC(=S)NC2CCCC2)c(OC)c1	> 42.1
CC(=O)Nc1ccc(NC(=O)COC(=O)c2cnccn2)cc1	> 47.1
O=C(O)c1cc(S(=O)(=O)N2CCN(S(=O)(=O)c3ccc4ccccc4c3)CC2)ccc1Br	77 (≈ 143 µM)
CCO.N#CC1=C(N)Oc2c(oc(CO)cc2=O)C1c1ccccc1[N+](=O)[O-] (stereo not drawn)	45.9
COc1ccc(C(=O)Nc2cccc(OC(=O)c3ccco3)c2)cc1	3.2 (≈ 9.49 µM)
O=C(c1cccnc1)N1c2ccccc2Sc2ccccc21	43.1 (≈ 142 µM)
CC(CC(=O)Nc1ccccc1)n1ccnc1 (stereo not drawn)	> 34.4
O=C(COC(=O)Cc1ccccc1F)Nc1ccc(F)cc1F	47.9 (≈ 148 µM)
CC(C)CNCC1OCc2ccccc2CO1.Cl	> 40.8
O=C(Nc1ccc2c(c1)OCO2)C1CC1(Cl)Cl (stereo not drawn)	> 41.1
COC(=O)Cn1c2ccc(C)cc2c2nc3ccccc3nc21	< 0.2
COc1ccc(NC2CC(=O)N(c3cc([N+](=O)[O-])ccc3C)C2=O)cc1 (stereo not drawn)	> 53.3
Cc1nc(=S)c2c([nH]1)-c1ccccc1CC21CCCCC1	0.3 (≈ 1.01 µM)
O=c1[nH]c2ccccc2n2c(C(F)(F)F)nnc12	> 38.1
Cc1cc(C(=O)CN2C(=O)NC3(CCCCC3)C2=O)c(C)n1C	19 (≈ 59.9 µM)
COC(=O)c1ccc(COC(=O)CNC(=O)CNC(=O)c2ccc(OC)cc2)cc1	16.1 (≈ 38.9 µM)
CC(=O)c1cccc(NC(=O)N2CC(C)OC(C)C2)c1 (stereo not drawn)	> 41.5
Cc1ccc(S(=O)(=O)N2CCC[C@H]2C(=O)Nc2ccccc2Cl)cc1	17.4 (≈ 45.9 µM)
O=C(NC1CCCCC1)N1CCN(c2ccc([N+](=O)[O-])cc2)CC1	12.7 (≈ 38.2 µM)
CCOc1cnc(-c2c(-c3c(F)cccc3Cl)noc2C)o1	9.1 (≈ 28.2 µM)
Cc1nonc1-c1csc(N)n1	> 27.3

Structure (SMILES)	solubility kinetic [µg/mL]
CCCCOc1ccc(C(=O)NCCc2ccccc2)cc1	< 0.6
c1ccc(C2CCC(N3CCN(c4ccccc4)CC3)CC2)cc1 (stereo not drawn)	1.3 (≈ 4.06 µM)
Nc1cc(N)nc(SCC(=O)NCc2ccc3c(c2)OCO3)n1	> 50
Cc1cccc(NC(=O)c2ccc3c(c2)CCN3S(C)(=O)=O)c1	37.5 (≈ 113 µM)
Cc1ccc(C(=O)Nc2ccc(CN3CCS(=O)(=O)CC3)cc2)cc1C	42.7 (≈ 115 µM)
COC(=O)c1ccc(=O)n(CC(=O)c2ccc(Cl)cc2)c1	> 45.9
O=C(c1ccccc1)c1ccccc1N1C(=O)C=CC1=O	> 41.6
Cc1ccc(OCCCC(=O)NC(C)c2ccccc2)c(C)c1 (stereo not drawn)	22.6 (≈ 72.6 µM)
Cc1ccc(C(=O)NCC(=O)OC(C)C(=O)Nc2ccccc2[N+](=O)[O-])s1 (stereo not drawn)	> 58.7
CCOC(=O)C1CCN(C(=O)c2cc3c(C)cc(C)cc3[nH]2)CC1	7.7 (≈ 23.4 µM)
CCN(c1ccccc1)S(=O)(=O)c1ccc(Cl)c(NC(=O)CNC(C)c2ccccc2)c1 (stereo not drawn)	3.2 (≈ 6.78 µM)
COc1ccc(CN(C(=O)c2cccs2)c2ccccc2)cc1	8.8 (≈ 27.2 µM)
CCCC1Cc2c(sc(N)c2C#N)CO1 (stereo not drawn)	> 33.3
COC(=O)/N=C(/Cc1ccc(OC)cc1)c1ccc(OC)cc1	43.6 (≈ 139 µM)
O=C(NC(=O)N1CCCCCC1)c1ccccc1	> 36.9
CCOC(=O)C1CCN(C(=O)COc2cccc3ccccc23)CC1	43.2 (≈ 127 µM)
O=c1[nH]c2cccnc2n1-c1cccc([N+](=O)[O-])c1	17 (≈ 66.3 µM)
COC(=O)c1cc(=O)c2cccc(OC)c2[nH]1	> 35
CC(=O)Nc1ccc(C(=O)OCC(=O)Nc2ccc(S(=O)(=O)N3CCOCC3)cc2)cc1	> 69.2
COc1cc(OC)c(NC(C)C(=O)N2CCCC2)cc1Cl (stereo not drawn)	45.1 (≈ 144 µM)
N/C(=N\OC(=O)C1CC1)c1ccc([N+](=O)[O-])s1	26.4 (≈ 103 µM)
CC1C(=O)N2CCCc3cc(S(=O)(=O)N4CCCCC4)cc1c32 (stereo not drawn)	> 50.2
Cc1csc(NC(=O)c2cc(C)on2)n1	> 33.5
CC(C)(C)NC(=O)c1cccc2c1C(=O)c1ccccc1-2	3.9 (≈ 14 µM)

Structure (SMILES)	solubility kinetic [µg/mL]
O=[N+]([O-])c1c(Nc2ccc(Br)cc2)ccc2nonc12	< 0.2
CCC(NC(=O)c1ccncc1)c1ccccc1 (stereo not drawn)	> 36
Cc1ccccc1-c1noc(CNC(=O)COc2ccccc2)n1	7.7 (≈ 23.8 µM)
COc1ccc(NC(=O)Nc2ccc3c(c2)CCC3)cc1	< 0.3
CN1CCN(c2oc(-c3ccccc3)nc2S(=O)(=O)c2ccccc2)CC1	1.4 (≈ 3.65 µM)
COc1ccc2c(c1)c(C(=O)C(C)N1CCCCC1)c(C)n2C (stereo not drawn)	< 0.3
CC1=C([N+](=O)[O-])C(c2ccc(Cl)cc2)NC(=O)N1 (stereo not drawn)	> 40.2
N#Cc1ccc(NC(=O)CN2C(=O)NC3(CCCC3)C2=O)cc1Cl	46.1 (≈ 133 µM)
Cc1cccc(C(=O)Nc2cccnc2Cl)c1	> 37
CNC(=S)/N=C/NOCc1c(Cl)cccc1Cl	9.5 (≈ 32.5 µM)
CC(=O)C1=C(O)C(=O)N(Cc2ccccc2)C1c1ccc(F)cc1 (stereo not drawn)	> 48.8
CC1CCCCC1NC(=O)c1cc(=O)[nH]c2ccccc12 (stereo not drawn)	3.6 (≈ 12.7 µM)
COc1ccc(NC(=O)CC2CC3CCC2C3)cc1S(=O)(=O)N1CCOCC1 (stereo not drawn)	> 61.3
O=C(/C=C/c1c(Cl)cccc1Cl)N1CCOCC1	> 42.9
CC1CCCC(NC(=O)COC(=O)c2ccccc2[N+](=O)[O-])C1C (stereo not drawn)	48.6 (≈ 145 µM)
O=C(NC1CCN(C(=S)Nc2ccc(Cl)cc2)CC1)c1ccco1	> 54.6
O=C1c2ccsc2SCCN1Cc1c(F)cccc1Cl	44.4 (≈ 135 µM)
CCCn1c(=S)[nH]c2ccc(C(F)(F)F)cc21	20.7 (≈ 79.5 µM)
CCN(C(=O)COC(=O)CN1C(=O)c2ccccc2C1=O)c1ccccc1	> 55
COc1ccc(C(=O)OC2CC3CCC(C2)[N+]3(C)[O-])cc1OC (stereo not drawn)	47.8 (≈ 149 µM)
O=C(O)/C=C/C(=O)Nc1c(F)cccc1F	27.1 (≈ 119 µM)
Cc1ccccc1NC(=O)Cc1cccc(C(F)(F)F)c1	5.3 (≈ 18.1 µM)
